Results taken from patent publication US20100093060A1, “GROWTH OF MICROORGANISMS IN CELLULOSIC MEDIA” (priority 2008, published 2010).
Residues, ends and D or L forms follow the SMILES beside them.

Key:
[1] = Determination of Critical Micelle Concentration (surface tension, Wilhelmy plate); type: physicochemical; details: triple distilled water, pH 10, 25±1° C.
Method: Determination of Critical Micelle Concentration. […] Surface tension was measured at 25±1° C. using the Wilhelmy plate technique with a sandblasted platinum plate as the sensor coupled to a Cahn microbalance. The entire assembly was kept in a draft-free plastic cage at a temperature of 25±1° C.

[2] = system: Gram-negative and Gram-positive bacteria; details: minimal antibacterial effects; typical range; cited from earlier work

Critical Micelle Concentration (CMC) [1]	Compound	minimum inhibitory concentration (MIC) [2]
1.3 mM	CCCCCCCCCCCC(O)CC(=O)N[C@@H](CCC(=O)O)C(=O)O (stereo partly drawn) [FA-Glu, β-hydroxy myristoyl glutamate]	–
14.1 mM	CCCCCCCCCCCCCC(=O)N[C@@H](CCC(=O)O)C(=O)O [myristoyl glutamate]	–
–	CC(C)CCCCCCCCC[C@@H]1CC(=O)N[C@@H](CCC(=O)O)C(=O)N[C@@H](CC(C)C)C(=O)N[C@H](CC(C)C)C(=O)N[C@@H](C(C)C)C(=O)N[C@@H](CC(=O)O)C(=O)N[C@H](CC(C)C)C(=O)N[C@@H](CC(C)C)C(=O)O1 [surfactin] (HELM PEPTIDE1{E.L.[dL].V.D.[dL].L}|CHEM1{[CC(C)CCCCCCCCC[C@H](CC(=O)[*:1])O[*:2]]}$PEPTIDE1,CHEM1,1:R1-1:R1|PEPTIDE1,CHEM1,7:R2-1:R2$$$V2.0)	12 to 50 µg/mL
